One test concerns the target mMC3R (Mus musculus, UniProt P33033). The test can be described thus: Functional bioassay, CRE/β-galactosidase reporter in HEK-293 cells stably expressing mMC3R. The following applies: for pharmacology in words at mMC3R: slight agonist = some stimulatory response at 100 μM, not enough to determine an EC50.
The target in another test is mMC4R (Mus musculus, UniProt P56450). The test can be described thus: Functional bioassay, CRE/β-galactosidase reporter in HEK-293 cells stably expressing mMC4R. The following applies: for pharmacology in words at mMC4R: slight agonist = some stimulatory response at 100 μM, not enough to determine an EC50.
In another test the target is mMC5R (Mus musculus, UniProt P41149). In words: Functional bioassay, CRE/β-galactosidase reporter in HEK-293 cells stably expressing mMC5R. The settings on record: for pharmacology in words at mMC5R: slight agonist = some stimulatory response at 100 μM, not enough to determine an EC50.
For the next test, the target named is mMC1R (Mus musculus, UniProt Q01727). In words: Functional bioassay, CRE/β-galactosidase reporter in HEK-293 cells stably expressing mMC1R.

The structures appear in SMILES notation. Where a SMILES comes first, the peptide text is derived from it. Bridges are numbered along the chain shown (N, C = ends). [ ]: non-standard residue; d: D form. Nle = CCCC[C@H](N)C(=O)O; Dap = NC[C@H](N)C(=O)O Some results are limits rather than exact numbers.

Sequence of mMC5R (P41149 whole entry): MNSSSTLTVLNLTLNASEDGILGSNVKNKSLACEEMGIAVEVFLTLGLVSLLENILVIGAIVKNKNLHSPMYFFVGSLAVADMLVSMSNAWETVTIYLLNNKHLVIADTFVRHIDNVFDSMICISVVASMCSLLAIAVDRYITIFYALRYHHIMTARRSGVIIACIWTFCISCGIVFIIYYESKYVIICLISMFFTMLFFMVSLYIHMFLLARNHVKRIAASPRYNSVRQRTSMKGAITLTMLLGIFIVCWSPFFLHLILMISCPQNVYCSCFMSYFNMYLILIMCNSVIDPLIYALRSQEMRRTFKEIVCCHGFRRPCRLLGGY
Sequence of mMC3R (P33033 whole entry): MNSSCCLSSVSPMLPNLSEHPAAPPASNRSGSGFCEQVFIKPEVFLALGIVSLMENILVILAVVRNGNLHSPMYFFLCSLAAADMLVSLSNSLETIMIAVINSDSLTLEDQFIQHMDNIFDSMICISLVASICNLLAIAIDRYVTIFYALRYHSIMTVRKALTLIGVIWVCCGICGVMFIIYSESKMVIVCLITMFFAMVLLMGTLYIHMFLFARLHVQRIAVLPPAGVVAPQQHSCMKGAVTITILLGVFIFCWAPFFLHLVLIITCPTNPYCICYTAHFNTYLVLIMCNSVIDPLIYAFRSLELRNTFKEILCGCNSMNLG
Sequence of mMC4R (P56450 whole entry): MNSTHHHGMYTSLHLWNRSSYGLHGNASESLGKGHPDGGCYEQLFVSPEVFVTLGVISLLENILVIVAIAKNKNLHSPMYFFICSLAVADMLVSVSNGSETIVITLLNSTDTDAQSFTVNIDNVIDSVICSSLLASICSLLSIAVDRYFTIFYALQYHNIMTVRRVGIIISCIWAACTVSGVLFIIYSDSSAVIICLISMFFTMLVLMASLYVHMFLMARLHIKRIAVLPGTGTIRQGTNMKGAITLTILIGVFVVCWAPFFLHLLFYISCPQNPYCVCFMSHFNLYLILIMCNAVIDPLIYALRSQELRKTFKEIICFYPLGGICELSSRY
Sequence of mMC1R (Q01727 whole entry): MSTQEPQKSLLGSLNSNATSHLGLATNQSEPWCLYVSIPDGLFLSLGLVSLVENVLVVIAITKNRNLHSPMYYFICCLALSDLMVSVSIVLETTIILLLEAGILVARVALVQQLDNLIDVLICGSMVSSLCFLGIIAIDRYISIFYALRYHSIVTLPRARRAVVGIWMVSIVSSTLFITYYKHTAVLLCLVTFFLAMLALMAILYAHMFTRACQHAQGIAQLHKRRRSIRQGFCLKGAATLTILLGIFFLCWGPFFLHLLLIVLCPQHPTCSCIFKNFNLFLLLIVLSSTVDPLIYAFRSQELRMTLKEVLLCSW
Description for mMC1R: (§1) 5,000 to 15,000 post transfection cells were plated into 96 well Primera plates (Falcon) and incubated overnight. […] The assay media was aspirated and 50 μL of lysis buffer (250 mM Tris-HCl pH=8.0 and 0.1% Triton X-100) was added. The plates were stored at −80° overnight.
(§2) The plates containing the cell lysates were thawed the following day. Aliquots of 10 μL were taken from each well and transferred to another 96-well plate for relative protein determination. To the cell lysate plates, 40 μL phosphate-buffered saline with 0.5% BSA was added to each well. Subsequently, 150 μL substrate buffer (60 mM sodium phosphate, 1 mM MgCl2, 10 mM KCl, 5 mM β-mercaptoethanol, 200 mg/100 mL ONPG) was added to each well and the plates were incubated at 37°.
(§3) The sample absorbance, OD405, was measured using a 96 well plate reader (Molecular Devices). The relative protein was determined by adding 200 μL 1:5 dilution Bio Rad G250 protein dye:water to the 10 μL cell lysate sample taken previously, and the OD595 was measured on a 96 well plate reader (Molecular Devices). Data points were normalized both to the relative protein content and non-receptor dependent forskolin stimulation.
(§4) For data analysis, EC50 and pA2 values represent the mean of duplicate experiments performed in triplet, quadruplet or more independent experiments.
Description for mMC3R: as §1, §2, §3, §4
Description for mMC4R: as §1, §2, §3, §4
Description for mMC5R: as §1, §2, §3, §4

In the case of `C[C@@H]1NC(=O)[C@H](CC(N)=O)NC(=O)[C@@H](Cc2ccccc2)NC(=O)[C@H](Cc2ccccc2)NC(=O)[C@H](CCCNC(=N)N)NC(=O)[C@@H](NC(=O)[C@@H](N)Cc2ccc(O)cc2)CSSC[C@@H](C(=O)N[C@@H](Cc2ccc(O)cc2)C(N)=O)NC(=O)[C@H](Cc2ccccc2)NC1=O` [SEQ ID NO: 1, Tyr-c[Cys-Arg-Phe-DPhe-Asn-Ala-Phe-Cys]-Tyr] (H-YCRF[dF]NAFCY-NH2; disulfide 2-9), on mMC3R, the EC50 was greater than 100 µM and the “pharmacology in words at mMC3R” value is recorded as “Slight Agonist”. On mMC4R, the Kb was 794 nM and the “pharmacology in words at mMC4R” value is “Partial agonist”.

For the compound `C[C@@H]1NC(=O)[C@H](C)NC(=O)[C@@H](NC(=O)[C@@H](N)Cc2ccc(O)cc2)CC(=O)NC[C@@H](C(=O)N[C@@H](Cc2ccc(O)cc2)C(N)=O)NC(=O)[C@H](Cc2ccccc2)NC(=O)[C@H](C)NC(=O)[C@H](CC(N)=O)NC(=O)[C@H](C)NC1=O` [SEQ ID NO: 2, Tyr-c[Asp-Ala-Ala-Ala-Asn-Ala-Phe-Dpr]-Tyr] (H-YDAAANAF[Dap]Y-NH2; lactam 2-9), the EC50 is greater than 100 µM at mMC3R, greater than 100 µM on mMC5R, greater than 100000 nM on mMC4R and greater than 100 µM at mMC1R.

As to `C[C@@H]1NC(=O)[C@H](CC(N)=O)NC(=O)[C@H](Cc2ccccc2)NC(=O)[C@H](Cc2ccccc2)NC(=O)[C@H](CCCNC(=N)N)NC(=O)[C@@H](NC(=O)[C@@H](N)Cc2ccc(O)cc2)CC(=O)NC[C@@H](C(=O)N[C@@H](Cc2ccc(O)cc2)C(N)=O)NC(=O)[C@H](Cc2ccccc2)NC1=O` [SEQ ID NO: 3, Tyr-c[Asp-Arg-Phe-Phe-Asn-Ala-Phe-Dpr]-Tyr], the Kb on mMC3R was determined as 2000 nM; on mMC4R, 1260 nM. Also, at mMC5R, the EC50 was greater than 100 µM. Moreover, the “decrease in antagonist potency at mMC4R” value on mMC4R (compared with hAGRP(109-118)) worked out at 8 fold.

Take `C[C@@H]1NC(=O)[C@H](CC(N)=O)NC(=O)[C@H](Cc2ccccc2)NC(=O)[C@H](CCCNC(=N)N)NC(=O)[C@H](Cc2c[nH]c3ccccc23)NC(=O)[C@@H](NC(=O)[C@@H](N)Cc2ccc(O)cc2)CC(=O)NC[C@@H](C(=O)N[C@@H](Cc2ccc(O)cc2)C(N)=O)NC(=O)[C@H](Cc2ccccc2)NC1=O` [SEQ ID NO: 4, Tyr-c[Asp-Trp-Arg-Phe-Asn-AIa-Phe-Dpr]-Tyr] (H-YDWRFNAF[Dap]Y-NH2; lactam 2-9): the EC50 on mMC3R and on mMC5R was greater than 100 µM throughout. The “pharmacology in words at mMC4R” value at mMC4R is “Partial agonist”.

In the case of `C[C@@H]1NC(=O)[C@H](CC(N)=O)NC(=O)[C@@H](Cc2ccccc2)NC(=O)[C@H](CCCNC(=N)N)NC(=O)[C@H](Cc2c[nH]c3ccccc23)NC(=O)[C@@H](NC(=O)[C@@H](N)Cc2ccc(O)cc2)CC(=O)NC[C@@H](C(=O)N[C@@H](Cc2ccc(O)cc2)C(N)=O)NC(=O)[C@H](Cc2ccccc2)NC1=O` [SEQ ID NO: 5, Tyr-c[Asp-Trp-Arg-DPhe-Asn-Ala-Phe-Dpr]-Tyr] (H-YDWR[dF]NAF[Dap]Y-NH2; lactam 2-9), the “pharmacology in words at mMC3R” value on mMC3R is “Slight Agonist”.

On to `C[C@@H]1NC(=O)[C@H](CC(N)=O)NC(=O)[C@H](Cc2c[nH]c3ccccc23)NC(=O)[C@H](CCCNC(=N)N)NC(=O)[C@H](Cc2ccccc2)NC(=O)[C@@H](NC(=O)[C@@H](N)Cc2ccc(O)cc2)CC(=O)NC[C@@H](C(=O)N[C@@H](Cc2ccc(O)cc2)C(N)=O)NC(=O)[C@H](Cc2ccccc2)NC1=O` [SEQ ID NO: 6, Tyr-c[Asp-Phe-Arg-Trp-Asn-Ala-Phe-Dpr]-Tyr] (H-YDFRWNAF[Dap]Y-NH2; lactam 2-9), for which the “pharmacology in words at mMC3R” value on mMC3R is given as “Slight agonist”.

On to `CCCC[C@H](NC(=O)[C@H](CO)NC(=O)[C@H](Cc1ccc(O)cc1)NC(=O)[C@H](CO)NC(C)=O)C(=O)N[C@@H](Cc1ccc(O)cc1)C(=O)N[C@H]1CC(=O)NC[C@@H](C(=O)N[C@@H](Cc2ccc(O)cc2)C(=O)N[C@@H](CCCCN)C(=O)N2CCC[C@H]2C(=O)N[C@H](C(N)=O)C(C)C)NC(=O)[C@H](Cc2ccccc2)NC(=O)[C@H](C)NC(=O)[C@H](CC(N)=O)NC(=O)[C@H](Cc2ccccc2)NC(=O)[C@H](Cc2ccccc2)NC(=O)[C@H](CCCNC(=N)N)NC1=O` [SEQ ID NO: 11, Ac-Ser-Tyr-Ser-Nle-Tyr-c[Asp-Arg-Phe-Phe-Asn-Ala-Phe-Dpr]-Tyr-Lys-Pro-Val] (Ac-SYS[Nle]YDRFFNAF[Dap]YKPV-NH2; lactam 6-13), for which the Kb on mMC3R and on mMC4R was 631 nM in each case. At mMC5R, this compound yielded an EC50 greater than 100 µM.

As to `CCCC[C@H](NC(=O)[C@H](CO)NC(=O)[C@H](Cc1ccc(O)cc1)NC(=O)[C@H](CO)NC(C)=O)C(=O)N[C@@H](CCC(=O)O)C(=O)N[C@@H](Cc1c[nH]cn1)C(=O)N[C@@H](CCCNC(=N)N)C(=O)N[C@@H](Cc1ccccc1)C(=O)N[C@H](Cc1ccccc1)C(=O)NCC(=O)N[C@@H](CCCCN)C(=O)N1CCC[C@H]1C(=O)N[C@H](C(N)=O)C(C)C` [SEQ ID NO: 18, Ac-Ser-Tyr-Ser-Nle-Glu-His-Arg-Phe-DPhe-Gly-Lys-Pro-Val] (Ac-SYS[Nle]EHRF[dF]GKPV-NH2), the figures for the EC50 at mMC3R and at mMC4R were greater than 100 µM and greater than 100000 nM, respectively. Further, the “pharmacology in words at mMC5R” value on mMC5R was “Slight agonist”.

For the compound `CCCC[C@H](NC(C)=O)C(=O)N[C@H]1CC(=O)NCCCC[C@@H](C(N)=O)NC(=O)[C@@H](Cc2ccccc2)NC(=O)[C@H](Cc2ccccc2)NC(=O)[C@H](CCCNC(=N)N)NC(=O)[C@H](Cc2c[nH]cn2)NC1=O` [SEQ ID NO: 23, Ac-Nle-c[Asp-His-Arg-Phe-DPhe-Lys]] (Ac-[Nle]DHRF[dF]K-NH2; lactam 2-7), the “pharmacology in words at mMC3R” value on mMC3R is recorded as “Slight agonist”. Besides, on mMC5R, the “pharmacology in words at mMC5R” value was “Slight agonist”. The compound also yielded an EC50 at mMC4R greater than 100000 nM.

Turning to `C[C@@H]1NC(=O)[C@H](CC(N)=O)NC(=O)[C@H](Cc2c[nH]c3ccccc23)NC(=O)[C@H](CCCNC(=N)N)NC(=O)[C@H](C)NC(=O)[C@H](Cc2c[nH]cn2)NC(=O)[C@@H](NC(=O)[C@@H](N)Cc2ccc(O)cc2)CC(=O)NC[C@@H](C(=O)N[C@@H](Cc2ccc(O)cc2)C(N)=O)NC(=O)[C@H](Cc2ccccc2)NC1=O` [SEQ ID NO: 25], at mMC3R, the “pharmacology in words at mMC3R” value is listed as “Partial agonist”.

On to `C[C@@H]1NC(=O)[C@H](CC(N)=O)NC(=O)[C@H](Cc2c[nH]c3ccccc23)NC(=O)[C@H](CCCNC(=N)N)NC(=O)[C@@H](Cc2ccccc2)NC(=O)[C@@H]2CCCN2C(=O)[C@@H](NC(=O)[C@@H](N)Cc2ccc(O)cc2)CC(=O)NC[C@@H](C(=O)N[C@@H](Cc2ccc(O)cc2)C(N)=O)NC(=O)[C@H](Cc2ccccc2)NC1=O` [SEQ ID NO: 28, Tyr-c[Asp-Pro-DPhe-Arg-Trp-Asn-Ala-Phe-Dpr]-Tyr] (H-YDP[dF]RWNAF[Dap]Y-NH2; lactam 2-10), for which, on mMC3R, the Kb was determined as 63.1 nM and the “pharmacology in words at mMC3R” value is “Partial agonist”.

With `C[C@@H]1NC(=O)[C@H](CC(N)=O)NC(=O)[C@H](Cc2c[nH]c3ccccc23)NC(=O)[C@H](CCCNC(=N)N)NC(=O)[C@@H](Cc2ccccc2)NC(=O)[C@H](Cc2ccccc2)NC(=O)[C@@H](NC(=O)[C@@H](N)Cc2ccc(O)cc2)CC(=O)NC[C@@H](C(=O)N[C@@H](Cc2ccc(O)cc2)C(N)=O)NC(=O)[C@H](Cc2ccccc2)NC1=O` [SEQ ID NO: 29, Tyr-c[Asp-Phe-DPhe-Arg-Trp-Asn-Ala-Phe-Dpr]-Tyr] (H-YDF[dF]RWNAF[Dap]Y-NH2; lactam 2-10), at mMC3R, the Kb turned out to be 63.1 nM and the “pharmacology in words at mMC3R” value is “Partial agonist”.

Regarding `C[C@@H]1NC(=O)[C@H](CC(N)=O)NC(=O)[C@H](Cc2c[nH]c3ccccc23)NC(=O)[C@H](CCCNC(=N)N)NC(=O)[C@@H](Cc2ccc(I)cc2)NC(=O)[C@H](Cc2c[nH]cn2)NC(=O)[C@@H](NC(=O)[C@@H](N)Cc2ccc(O)cc2)CC(=O)NC[C@@H](C(=O)N[C@@H](Cc2ccc(O)cc2)C(N)=O)NC(=O)[C@H](Cc2ccccc2)NC1=O` [SEQ ID NO: 32, Tyr-c[Asp-His-(pI)DPhe-Arg-Trp-Asn-Ala-Phe-Dpr]-Tyr], the Kb on mMC3R was found to be 1.26 nM. Moreover, on mMC4R, the Kb is 0.398 nM and the “pharmacology in words at mMC4R” value was “Partial agonist”.

Take `C[C@@H]1NC(=O)[C@H](CC(N)=O)NC(=O)[C@H](Cc2c[nH]c3ccccc23)NC(=O)[C@H](CCCNC(=N)N)NC(=O)[C@@H](Cc2ccc3ccccc3c2)NC(=O)[C@H](Cc2c[nH]cn2)NC(=O)[C@@H](NC(=O)[C@@H](N)Cc2ccc(O)cc2)CC(=O)NC[C@@H](C(=O)N[C@@H](Cc2ccc(O)cc2)C(N)=O)NC(=O)[C@H](Cc2ccccc2)NC1=O` [SEQ ID NO: 33, Tyr-c[Asp-His-DNal(2′)-Arg-Trp-Asn-Ala-Phe-Dpr]-Tyr]: the Kb on mMC3R stood at 5.01 nM. Moreover, on mMC4R, the Kb worked out at 0.501 nM and the “pharmacology in words at mMC4R” value was “Partial agonist”.

`C[C@@H]1NC(=O)[C@H](CC(N)=O)NC(=O)[C@H](Cc2c[nH]c3ccccc23)NC(=O)[C@H](CCCNC(=N)N)NC(=O)[C@@H](Cc2cccc3ccccc23)NC(=O)[C@H](Cc2c[nH]cn2)NC(=O)[C@@H](NC(=O)[C@@H](N)Cc2ccc(O)cc2)CC(=O)NC[C@@H](C(=O)N[C@@H](Cc2ccc(O)cc2)C(N)=O)NC(=O)[C@H](Cc2ccccc2)NC1=O` [SEQ ID NO: 34, Tyr-c[Asp-His-DNal(1′)-Arg-Trp-Asn-Ala-Phe-Dpr]-Tyr]: at mMC4R, the EC50 is 0.57 ± 0.08 nM.

In turn, `C[C@@H]1NC(=O)[C@H](CC(N)=O)NC(=O)[C@H](Cc2c[nH]c3ccccc23)NC(=O)[C@H](CCCNC(=N)N)NC(=O)[C@@H](Cc2ccc(-c3ccccc3)cc2)NC(=O)[C@H](Cc2c[nH]cn2)NC(=O)[C@@H](NC(=O)[C@@H](N)Cc2ccc(O)cc2)CC(=O)NC[C@@H](C(=O)N[C@@H](Cc2ccc(O)cc2)C(N)=O)NC(=O)[C@H](Cc2ccccc2)NC1=O` [SEQ ID NO: 35, Tyr-c[Asp-His-DBip-Arg-Trp-Asn-Ala-Phe-Dpr]-Tyr] returned a concentration for a half-maximal effect (EC50) at mMC4R of 0.57 ± 0.07 nM.

The record behind these values is patent US7582610B2, “Melanocortin receptor templates, peptides and use thereof” (priority 2003, dated 2009).
